Results reported in ChEMBL document CHEMBL1201862, “PubChem BioAssay data set” (2004).
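Protocol summary: plate cells (96-well), add compound at 5 concentrations, incubate 48 h, interpolate endpoints linearly. GI50 is the concentration that inhibits growth by half.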 Activity calls are given as the source filed them. No stated cut-off is given here; in the data, active = GI50 up to about 1.1 µM and inactive = higher.

What was measured:
Experiment in all cases: NCI-60 cell line screen, 48 h
[1] = test system: MDA-N
[2] = test system: ACHN
[3] = test system: HOP-92
[4] = test system: Malme-3M
[5] = test system: COLO 205
[6] = test system: K562
[7] = test system: A498
[8] = test system: MDA-MB-435
[9] = test system: BT-549
[10] = test system: OVCAR-3
[11] = test system: PC-3
[12] = test system: SF-539
[13] = test system: 786-0
[14] = test system: T47D
[15] = test system: UO-31
[16] = test system: TK-10
[17] = test system: HCT-15
[18] = test system: SK-MEL-5
[19] = test system: SK-MEL-28
[20] = test system: RPMI-8226

Compound	GI50 [1]	GI50 [2]	GI50 [3]	GI50 [4]	GI50 [5]	GI50 [6]	GI50 [7]	GI50 [8]	GI50 [9]	GI50 [10]	GI50 [11]	GI50 [12]	GI50 [13]	GI50 [14]	GI50 [15]	GI50 [16]	GI50 [17] [µM]	GI50 [18]	GI50 [19]	GI50 [20]
c1ccc2c3c(c(N4CCOCC4)nc2c1)CCCC3	50.4 µM (inactive)	41.2 µM (inactive)	67.1 µM (inactive)	75.2 µM (inactive)	20 µM (inactive)	49.8 µM (inactive)	24 µM (inactive)	48.6 µM (inactive)	39.7 µM (inactive)	36.6 µM (inactive)	36.6 µM (inactive)	20.8 µM (inactive)	32.8 µM (inactive)	16 µM (inactive)	41.2 µM (inactive)	63.4 µM (inactive)	35.3	20.2 µM (inactive)	85.1 µM (inactive)	
COC(=O)[C@@]1(C)CCC[C@]2(C(=O)O)C3Cc4occc4[C@H](C)[C@@H]3CCC21 (some centres not stated)	75.9 µM (inactive)	44.2 µM (inactive)	29.4 µM (inactive)	34.5 µM (inactive)		29.2 µM (inactive)	68.7 µM (inactive)	80.5 µM (inactive)	91.6 µM (inactive)	> 100 µM (inactive)	23.7 µM (inactive)	42.9 µM (inactive)	73.1 µM (inactive)	40.6 µM (inactive)	42.7 µM (inactive)	41 µM (inactive)	> 10	89.1 µM (inactive)	> 100 µM (inactive)	
CCOc1cnc(C(O)(c2ccccc2)c2ccccc2)o1	> 100 µM (inactive)	> 100 µM (inactive)	58.9 µM (inactive)	> 100 µM (inactive)	> 100 µM (inactive)	> 100 µM (inactive)	> 100 µM (inactive)	> 100 µM (inactive)	> 100 µM (inactive)	> 100 µM (inactive)	> 100 µM (inactive)	> 100 µM (inactive)	> 100 µM (inactive)	> 100 µM (inactive)	> 100 µM (inactive)		77.1	> 100 µM (inactive)	> 100 µM (inactive)	> 100 µM (inactive)
O=C(O)CC[N+]1=CCC(c2ccccc2)(c2ccccc2)O1	> 100 µM (inactive)	> 100 µM (inactive)	> 100 µM (inactive)		> 100 µM (inactive)	> 100 µM (inactive)	> 100 µM (inactive)	> 100 µM (inactive)	> 100 µM (inactive)	> 100 µM (inactive)	> 100 µM (inactive)	> 100 µM (inactive)	> 100 µM (inactive)	> 100 µM (inactive)	> 100 µM (inactive)	> 100 µM (inactive)	> 100	> 100 µM (inactive)	> 100 µM (inactive)	
O=C(c1ccc(Cl)cc1Cl)N(Cc1cccnc1)C(=S)N(Cc1cccnc1)C(=O)c1ccc(Cl)cc1Cl	2.31 µM (inactive)	9.62 µM (inactive)	3.83 µM (inactive)	16.4 µM (inactive)	2.08 µM (inactive)	3.52 µM (inactive)	10.3 µM (inactive)	17.7 µM (inactive)	3.72 µM (inactive)	2.67 µM (inactive)	2.4 µM (inactive)	2.22 µM (inactive)	2.12 µM (inactive)	11.4 µM (inactive)	4.26 µM (inactive)	3.77 µM (inactive)	3.12	3.33 µM (inactive)	10.9 µM (inactive)	0.678 µM (active)
O=C(CCc1cccc(O)c1)NCCc1cccc(OCc2ccccc2)c1	18.6 µM (inactive)	25.4 µM (inactive)	14.9 µM (inactive)	17.6 µM (inactive)	19.7 µM (inactive)	20.5 µM (inactive)	25.4 µM (inactive)	14.9 µM (inactive)	16.1 µM (inactive)	6.55 µM (inactive)	10.3 µM (inactive)	16.8 µM (inactive)	25.4 µM (inactive)	18.8 µM (inactive)	8.93 µM (inactive)	24.1 µM (inactive)	19.9	16 µM (inactive)	16.1 µM (inactive)	16.2 µM (inactive)
CN(C)/C=N/c1ccc2c3c(cccc13)-c1ccccc1-2	14.5 µM (inactive)	16 µM (inactive)	12.4 µM (inactive)	18.5 µM (inactive)	16.6 µM (inactive)	10.2 µM (inactive)	10.1 µM (inactive)	15.1 µM (inactive)	17 µM (inactive)	14.9 µM (inactive)	12.8 µM (inactive)	12.1 µM (inactive)	12.6 µM (inactive)	15 µM (inactive)	5.22 µM (inactive)	13.8 µM (inactive)	11.8	14.9 µM (inactive)	17.7 µM (inactive)	10.4 µM (inactive)
CCCN(CCC)C(=S)N/N=C/c1ccccn1	0.0989 µM (active)	< 0.01 µM (active)	0.169 µM (active)	0.0463 µM (active)	< 0.0186 µM (active)	< 0.01 µM (active)	0.0372 µM (active)	0.17 µM (active)	0.341 µM (active)	< 0.01 µM (active)	< 0.01 µM (active)	0.118 µM (active)	< 0.01 µM (active)	< 0.01 µM (active)	0.0239 µM (active)	0.0203 µM (active)	< 0.01	< 0.0173 µM (active)	0.17 µM (active)	< 0.01 µM (active)
COC(=O)c1cc2/c(=N/O)c3ccccc3sc2o1	> 100 µM (inactive)	> 100 µM (inactive)	> 100 µM (inactive)	> 100 µM (inactive)	> 100 µM (inactive)	> 100 µM (inactive)	> 100 µM (inactive)	> 100 µM (inactive)	> 100 µM (inactive)	> 100 µM (inactive)	> 100 µM (inactive)	> 100 µM (inactive)	> 100 µM (inactive)	> 100 µM (inactive)		> 100 µM (inactive)	> 100	> 100 µM (inactive)	> 100 µM (inactive)	> 100 µM (inactive)
[N-]=[N+]=NC1(N=[N+]=[N-])C(=O)NN=C(c2ccccc2)C1=O (configuration not stated)	20.7 µM (inactive)	> 100 µM (inactive)	> 100 µM (inactive)	7.18 µM (inactive)	> 100 µM (inactive)	38.9 µM (inactive)	> 100 µM (inactive)	18.4 µM (inactive)	> 100 µM (inactive)	68.4 µM (inactive)	> 100 µM (inactive)	> 100 µM (inactive)	> 100 µM (inactive)	31.1 µM (inactive)	> 100 µM (inactive)	> 100 µM (inactive)	> 100		16.3 µM (inactive)	41.3 µM (inactive)
O=C(O[C@H]1[C@@H](O)[C@H](n2cnc3c(Cl)ncnc32)O[C@@H]1COC(c1ccccc1)(c1ccccc1)c1ccccc1)c1ccccc1	35.9 µM (inactive)	15.7 µM (inactive)	15.8 µM (inactive)		15.9 µM (inactive)	3.6 µM (inactive)	17.2 µM (inactive)	26.8 µM (inactive)	18.2 µM (inactive)	14.2 µM (inactive)	11 µM (inactive)	20 µM (inactive)	14.9 µM (inactive)	3.98 µM (inactive)	1.27 µM (inactive)	45.2 µM (inactive)	17.4	8.47 µM (inactive)	46.3 µM (inactive)	2.25 µM (inactive)
CO/N=C(\C)CCC#Cc1ccccc1C(=O)OC	> 10 µM (inactive)	> 10 µM (inactive)		> 10 µM (inactive)	> 10 µM (inactive)	> 10 µM (inactive)	> 10 µM (inactive)	> 10 µM (inactive)	> 10 µM (inactive)	> 10 µM (inactive)	> 10 µM (inactive)	> 10 µM (inactive)	> 10 µM (inactive)	> 10 µM (inactive)	> 10 µM (inactive)	> 10 µM (inactive)	> 10	> 10 µM (inactive)	> 10 µM (inactive)	> 10 µM (inactive)
Cc1cccc(C)c1NC(=O)C(=O)CC(=O)/C=C/c1ccccc1	> 100 µM (inactive)	> 100 µM (inactive)	> 100 µM (inactive)	> 100 µM (inactive)		> 100 µM (inactive)	> 100 µM (inactive)	> 100 µM (inactive)	> 100 µM (inactive)	> 100 µM (inactive)	> 100 µM (inactive)	> 100 µM (inactive)	> 100 µM (inactive)	> 100 µM (inactive)	> 100 µM (inactive)	> 100 µM (inactive)	> 100	> 100 µM (inactive)	> 100 µM (inactive)	> 100 µM (inactive)
O=C(O)c1c(CC(Cc2ccccc2)C(=O)O)ccc2c1CCC2 (configuration not stated)	> 100 µM (inactive)	> 100 µM (inactive)	> 100 µM (inactive)	> 100 µM (inactive)	> 100 µM (inactive)	> 100 µM (inactive)	> 100 µM (inactive)	> 100 µM (inactive)	> 100 µM (inactive)	> 100 µM (inactive)	> 100 µM (inactive)	> 100 µM (inactive)	> 100 µM (inactive)	66.5 µM (inactive)	> 100 µM (inactive)	> 100 µM (inactive)	> 100	> 100 µM (inactive)	> 100 µM (inactive)	> 100 µM (inactive)
O=Cc1ccc2ccocc1-2	> 100 µM (inactive)	> 100 µM (inactive)	> 100 µM (inactive)		> 100 µM (inactive)	> 100 µM (inactive)	> 100 µM (inactive)	> 100 µM (inactive)	> 100 µM (inactive)	> 100 µM (inactive)	> 100 µM (inactive)	> 100 µM (inactive)	> 100 µM (inactive)	> 100 µM (inactive)	> 100 µM (inactive)	> 100 µM (inactive)	> 100	> 100 µM (inactive)		> 100 µM (inactive)
